Reference: PubChem BioAssay AID1963421 (Molecular Pharmacology Branch, DTP, NCI, 2024)

Tested on: 519858-162-T-J1-PDC complex spheroid growth, % test/control
Assay: Anticancer human tumor 519858-162-T-J1-PDC patient-derived colon adenocarcinoma cell line growth inhibition [Asc]
Conditions: for IC50: curve of first compound; for viability, T/C: stronger effect = lower value
Summary of the method: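 Concentration series start at each agent's clinical Cmax, or at 10 microM when none is established, and drop in half-log steps; agents are applied alone or together to complex spheroids built with HUVEC and hMSC.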
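Further: seven day drug exposure begun three days after spheroid seeding.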
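Wherever viability, T/C is given: 100% = DMSO vehicle wells and lower values mean less viable spheroid.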

In the case of `Cn1ncnc1[C@H]1c2n[nH]c(=O)c3cc(F)cc(c23)N[C@@H]1c1ccc(F)cc1` + CCN1C(C(=O)NC23CCC(C(=O)O)(CC2)CC3)C(c2cccc(Cl)c2F)C2(C(=O)Nc3cc(Cl)ccc32)C12CCCCC2, the IC50 (second compound 0.00949 µM) is reported as > 0.1 µM, the IC50 (second compound 0.03 µM) is reported as > 0.1 µM and the IC50 (second compound 0.0949 µM) is reported as > 0.1 µM. The IC50 (second compound 0.3 µM) was > 0.1 µM, the IC50 (second compound 0.949 µM) was > 0.1 µM and the IC50 (second compound 3 µM) was > 0.1 µM. For the same compound, the viability, T/C (second compound 0.00949 µM, first compound 0.000316 µM) was 87%, the viability, T/C (second compound 0.00949 µM, first compound 0.001 µM) was 86.3% and the viability, T/C (second compound 0.00949 µM, first compound 0.00316 µM) was 103%. For the same compound, the viability, T/C (second compound 0.00949 µM, first compound 0.01 µM) was 103%, the viability, T/C (second compound 0.00949 µM, first compound 0.0316 µM) was 84.8% and the viability, T/C (second compound 0.00949 µM, first compound 0.1 µM) was 98.1%. It also gave a viability, T/C (second compound 0.03 µM, first compound 0.000316 µM) of 119%, a viability, T/C (second compound 0.03 µM, first compound 0.001 µM) of 82.3% and a viability, T/C (second compound 0.03 µM, first compound 0.00316 µM) of 72%. For the same compound, the viability, T/C (second compound 0.03 µM, first compound 0.01 µM) was 91.5%, the viability, T/C (second compound 0.03 µM, first compound 0.0316 µM) was 74.6% and the viability, T/C (second compound 0.03 µM, first compound 0.1 µM) was 65.5%. It also gave a viability, T/C (second compound 0.0949 µM, first compound 0.000316 µM) of 137%, a viability, T/C (second compound 0.0949 µM, first compound 0.001 µM) of 56.1% and a viability, T/C (second compound 0.0949 µM, first compound 0.00316 µM) of 105%. It also gave a viability, T/C (second compound 0.0949 µM, first compound 0.01 µM) of 82.4%, a viability, T/C (second compound 0.0949 µM, first compound 0.0316 µM) of 90.6% and a viability, T/C (second compound 0.0949 µM, first compound 0.1 µM) of 87.5%. The viability, T/C (second compound 0.3 µM, first compound 0.000316 µM) was 103%, the viability, T/C (second compound 0.3 µM, first compound 0.001 µM) was 90.7% and the viability, T/C (second compound 0.3 µM, first compound 0.00316 µM) was 93.7%. For the same compound, the viability, T/C (second compound 0.3 µM, first compound 0.01 µM) was 97.3%, the viability, T/C (second compound 0.3 µM, first compound 0.0316 µM) was 75.4% and the viability, T/C (second compound 0.3 µM, first compound 0.1 µM) was 91.1%. The viability, T/C (second compound 0.949 µM, first compound 0.000316 µM) was 75.2%, the viability, T/C (second compound 0.949 µM, first compound 0.001 µM) was 92.3% and the viability, T/C (second compound 0.949 µM, first compound 0.00316 µM) was 108%. It also gave a viability, T/C (second compound 0.949 µM, first compound 0.01 µM) of 72.3%, a viability, T/C (second compound 0.949 µM, first compound 0.0316 µM) of 91.9% and a viability, T/C (second compound 0.949 µM, first compound 0.1 µM) of 95.8%. For the same compound, the viability, T/C (second compound 3 µM, first compound 0.000316 µM) was 70.2%, the viability, T/C (second compound 3 µM, first compound 0.001 µM) was 68.8% and the viability, T/C (second compound 3 µM, first compound 0.00316 µM) was 68.3%. The viability, T/C (second compound 3 µM, first compound 0.01 µM) was 74.2%, the viability, T/C (second compound 3 µM, first compound 0.0316 µM) was 107% and the viability, T/C (second compound 3 µM, first compound 0.1 µM) was 85.1%.
